molecular target: T1, 14-3-3ζ (Homo sapiens, UniProt P63104); experiment: 14-3-3 phosphorylation by PKA catalytic subunit (autoradiography); type: biochemical; conditions: TMA compounds at 125 μM or 62.5 μM in 0.1% ethanol; P81 scintillation counting or autoradiography
T1 construct: made in house
T1 sequence (P63104 1-245): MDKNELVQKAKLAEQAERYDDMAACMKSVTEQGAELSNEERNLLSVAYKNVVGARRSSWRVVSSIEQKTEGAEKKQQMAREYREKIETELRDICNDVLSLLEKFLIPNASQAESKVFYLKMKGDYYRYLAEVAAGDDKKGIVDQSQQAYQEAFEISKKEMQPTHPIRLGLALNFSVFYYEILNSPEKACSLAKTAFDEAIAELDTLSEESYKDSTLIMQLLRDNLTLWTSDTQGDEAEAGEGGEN

SMILES | 14-3-3 phosphorylation by PKA catalytic subunit
CCCCCCCCCCCCCCCC[N+](C)(C)C.[Br-] [C16, hexadecyl-trimethyl ammonium] | capable of facilitating 14-3-3 phosphorylation
CCCCCCCCCCCCCC[N+](C)(C)C [C14] | capable of facilitating 14-3-3 phosphorylation

molecular target: T1, 14-3-3ζ; experiment: as above; type: biochemical; conditions: 50 μM lipid delivered in 0.1% ethanol
Protocol: 14-3-3ζ (wild-type or S58A mutant) was incubated with the catalytic subunit of PKA in the presence (+) or absence (−) of 50 μM sphingosine (A) or DMS (B) delivered in 0.1% ethanol. Phosphorylated 14-3-3ζ was detected by autoradiography.
The assay was carried out by incubating 14-3-g (0.5 μg) with catalytic subunit of PKA (0.2 Units) with the indicated concentration of DMS delivered in 0.1% ethanol. Reactions were separated on SDS-PAGE and phosphorylated protein detected by autoradiography. […] (B) 14-3-3ζ was incubated with the catalytic subunit of PKA and 50 μM D-erythro-sphingosine (Sph), D-erythro-trimethyl-sphingosine (TMS), D-erythro-dihydro-sphingosine (DHS), phyto-sphingosine (PSph), D-erythro-sphingosine-1-phosphate (SIP), C2-ceramide (C2-Cer), sphingomyelin (SM), spermine (Sper) or linoleic acid (LA), all delivered in 0.1% ethanol. Phosphorylated 14-3-3ζ was detected by autoradiography.
Substrate 14-3-3 (either 0.5 μg of purified recombinant 14-3-3, a […] of fractions from gel filtration or immunoprecipitates from 14-3-3ζ-Myc transfected COS cells) were added to reaction mixture comprising 0.2 Units of the PKA catalytic subunit, in the presences or absence of sphingolipid (delivered in 0.1% v/v ethanol) in PICA reaction buffer (20 mM MOPS, pH 7.4, 20 mM β-glycerol phosphate, 4 mM EGTA, 1 mM Na3VO4, 60 mM MgCl2, 1 mM DTT, 500 μM ATP, 2.4 μCi [^32P]γ-ATP). Reactions were incubated at 37° C. for 15 minutes. After incubation, reactions were separated on 12.5% SDS-PAGE, coomassie stained and 14-3-3 phosphorylation analysed by autoradiography.

SMILES | phosphorylation of 14-3-3ζ on Ser58 by PKA catalytic subunit
CCCCCCCCCCCCC/C=C/[C@@H](O)[C@H](CO)NC(C)=O [ceramide, C2-ceramide] | did not support the phosphorylation
CCCCCCCCCCCCC/C=C/[C@@H](O)[C@H](CO)[N+](C)(C)C [trimethyl-sphingosine, D-erythro-trimethyl-sphingosine] | allowed phosphorylation
CCCCCCCCCCCCCC[C@@H](O)[C@@H](O)[C@@H](N)CO [phyto-sphingosine] | allowed phosphorylation
CCCCCCCCCCCCC/C=C/[C@@H](O)[C@H](COP(=O)([O-])OCC[N+](C)(C)C)NC(=O)CCCCCCCCCCCCCCCCC [sphingomyelin] | did not support the phosphorylation
NCCCNCCCCNCCCN [spermide, spermine] | did not support the phosphorylation
CCCCC/C=C\C/C=C\CCCCCCCC(=O)O [linoleic acid] | did not support the phosphorylation
CCCCCCCCCCCCC/C=C/[C@@H](O)[C@@H](N)COP(=O)(O)O [sphingosine-1-phosphate, D-erythro-sphingosine-1-phosphate] | did not support the phosphorylation
CCCCCCCCCCCCCCC[C@@H](O)[C@@H](N)CO [dihydro-sphingosine, D-erythro-dihydro-sphingosine] | allowed phosphorylation

test system: Jurkat cells; experiment: Jurkat cell apoptosis (TMRE staining, NucView caspase activity); type: cell-based; conditions: TMAs, 16 hours incubation
From the text: (A) Immunoblotting of lysates from either parental Jurkat cells (Jurkat) or cells transduced with lentivirus encoding either wild type (Wt) or S58A 14-3-3ζ-Myc with either an anti-14-3-3ζ specific antibody (upper panel) or an anti-pan 14-3-3 antibody (middle panel) to compare the expression level of transduced protein. Myc immunoprecipitates were also immunoblotted with an anti-phospho 14-3-3 binding site antibody (lower panel) to detect proteins associated with 14-3-3ζ-Myc. Endogenous 14-3-3 is indicated by an open arrow and exogenous 14-3-3ζ-Myc with a closed arrow. (B) Lysates from either wild type (Wt) or S58A 14-3-3ζ-Myc expressing Jutkat cells were subjected to in vitro PKA phosphorylation in the presence (+) or absence (−) of […] and the samples immunoblotted after SDS-PAGE separation With either anti-Myc antibody (upper panel), anti-14-3-3ζ antibody (middle panel) or anti-phospho Ser58 14-3-3ζ antibody (lower panel). (C) Serum-starved Jurkat cells were treated with 2 μM FTY720 for 4 h prior to staining with TMRE and NucView™. Forward- versus side-scatter plots (FS versus SS) show the viable cell populations for FTY720 and EtOH (vehicle) treated cells which are analysed in the lower histograms for caspase activity (NucView™) versus ΔΨM (TMRE). (D and E) Jurkat cell lines expressing either wild type or S58A 14-3-3ζ-Myc by lentiviral transduction were serum-starved for 2 h and treated with either 0.1% ethanol vehicle alone (EtOH), 2 μM dimethyl-sphingosine (DMS), or 2 μM FTY720. Cells were analysed by TMRE staining at 4 h (D) or at the time points indicated (E). (D) Representative analyses of TMRE staining with forward- versus side-scatter plots inset to show the similarity in cell populations. (E) Graphical representation of TMRE analysis over time with open symbols representing vehicle (0.1% EtOH) treated cells and closed symbols representing FTY720 treated cells. […]
FIG. 11. […] Effect of TMAs on Jurkat cells after 16 hours incubation assessed by ΔΨM (TMRE) and caspase 3 activity (NucView™) analysis. […] Forward-side-scatter histograms showing cell viability are inset and caspase 3 activity as assessed by NucView™ analysis of viable cells shown. E. Examples of TMA-derivatives of FTY720 that will be analysed for effects on 14-3-3 dimer stability and apoptosis.
Having confirmed appropriate expression and behaviour of Myc-tagged wild type and S58A 14-3-3ζ in the Jurkat lines, these cells were utilised in functional studies to determine the effect of S58A 14-3-3ζ expression on cell survival in response to sphingosine analogues. […] Intriguingly, Jurkat cells expressing S58A 14-3-3ζ-Myc consistently underwent commitment to apoptosis (as detected by the loss of TMRE staining) more slowly than those expressing wild type 14-3-3ζ-Myc (FIG. 8D).

SMILES | apoptosis of Jurkat cells (ΔΨM by TMRE, caspase 3 by NucView)
CCCCCCCCCCCCCCCC[N+](C)(C)C.[Br-] [CTAB] | apoptosis induced by CTAB

molecular target: T2, PKCδCat-HA (Homo sapiens, UniProt Q05655); experiment: PKC kinase activity assay with Ser25 peptide substrate; type: biochemical; conditions: 10 μM GF109203X
T2 construct: recreated exactly the N-terminus of the caspase-3 cleaved protein; additional initiator methionine (N); expressed in transfected cells; host or cells: COS cells, anti-HA immunoprecipitate
Protocol: FIG. 5 is an image depicting that DMS is required for phosphorylation of 14-3-3ζ by PKCδCat but not for activation of the kinase. COS cells were transfected with either an empty expression construct (Mock) or one encoding a HA-tagged truncated form of PKCδ corresponding to the caspase-3 cleaved protein (PKCδCat-HA). 20 hours after transfection the cells were lysed and PKCδCat-HA was immunoprecipitated using an anti-HA antibody. (A) PKC assays were carried out on the immunoprecipitates from mock (open bars) and PKCδCat-HA (shaded bars) expressing cells using Ser25 peptide as substrate with [^32P]γ-ATP in the presence or absence of 100 μM DMS (delivered in 0.1% ethanol) or 10 μM of GF109203X (GFX), the PKC inhibitor. The values represent means±S.E. of triplicate determinations. (B) PKCδCat-HA immunoprecipitates were incubated with recombinant 14-3-3ζ and [^32P]γ-ATP in the presence or absence of DMS or GF109203X (GFX). Phosphorylated 14-3-3 was detected by autoradiography after separation of SDS-PAGE (upper panel). The gel was also coomassie stained to show equal loading of 14-3-3 protein (lower panel). […]
Equal amounts of PKCδCat-HA immunoprecipitate were used to assay for PKC kinase activity, or to phosphorylate recombinant 14-3-3. […] Following incubation, reactions were separated on 12.5% SDS-PAGE, coomassie stained and 14-3-3 phosphorylation analysed by autoradiography.

T2 sequence (Q05655 330-676 limits assumed): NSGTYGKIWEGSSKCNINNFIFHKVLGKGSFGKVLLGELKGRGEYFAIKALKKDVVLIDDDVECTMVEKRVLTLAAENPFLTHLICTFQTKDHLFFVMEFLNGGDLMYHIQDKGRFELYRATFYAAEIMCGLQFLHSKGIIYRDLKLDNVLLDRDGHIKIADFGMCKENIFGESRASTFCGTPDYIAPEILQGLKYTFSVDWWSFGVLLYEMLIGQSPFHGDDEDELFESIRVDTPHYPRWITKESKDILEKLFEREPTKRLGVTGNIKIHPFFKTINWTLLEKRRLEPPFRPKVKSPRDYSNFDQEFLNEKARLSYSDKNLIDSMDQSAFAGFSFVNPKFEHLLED

SMILES | effect on PKCδCat kinase activity
CN(C)CCCn1cc(C2=C(c3c[nH]c4ccccc34)C(=O)NC2=O)c2ccccc21 [GF109203X] | completely inhibited
